Assay results from patent US10584115B2, “Substituted pyridine and pyrazine BMI-1 inhibitors” (PTC Therapeutics, Inc., priority 2013, dated 2020).
Counter-ions that a name gives are not always drawn.

Each compound was assayed on Bmi-1 protein (assay: Sandwich ELISA Assay (Bmi-1 protein level in HT-1080 cells after compound treatment)). Details: Table 1, Bmi-1 sandwich ELISA, read-out: ELISA EC50 value for Bmi-1 protein.
Format: cell-based
Outline: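 HT-1080 cells exposed to compounds for 40–48 h at 37 °C (0.5% DMSO final), then lysed. Bmi-1 in lysates measured by sandwich ELISA (mouse monoclonal capture, rabbit anti-Bmi-1 detection, HRP anti-rabbit, TMB), read at OD450 with OD570 reference against a recombinant Bmi-1 standard curve (0–8000 pg/mL).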

| SMILES | EC50 [nM] |
| --- | --- |
| Cc1ccc(Nc2cncc(-c3c(C(F)(F)F)nn4ccccc34)n2)cc1 [compound 75, N-(4-methylphenyl)-6-[2-(trifluoromethyl)pyrazolo[1,5-a]pyridin-3-yl]pyrazin-2-amine] | 1 to 10 |
| Nc1nc2ccccc2n1-c1cncc(Nc2ccc(C(F)(F)F)cc2)n1 [compound 76, 1-(6-{[4-(trifluoromethyl)phenyl]amino}pyrazin-2-yl)-1H-benzimidazol-2-amine] | 100 to 3000 |
| COc1nc2ccccc2n1-c1cncc(Nc2ccc(C(F)(F)F)cc2)n1 [compound 77, 6-(2-methoxy-1H-benzimidazol-1-yl)-N-[4-(trifluoromethyl)phenyl]pyrazin-2-amine] | 10 to 100 |
| CC(=O)O[C@@H](C)c1nc2ccccc2n1-c1cncc(Nc2ccc(C(F)(F)F)cc2)n1 [compound 78, (1S)-1-[1-(6-{[4-(trifluoromethyl)phenyl]amino}pyrazin-2-yl)-1H-benzimidazol-2-yl]ethyl acetate] | 100 to 3000 |
| CCSc1nc2ccccc2n1-c1cncc(Nc2ccc(C(F)(F)F)cc2)n1 [compound 79, 6-[2-(ethylsulfanyl)-1H-benzimidazol-1-yl]-N-[4-(trifluoromethyl)phenyl]pyrazin-2-amine] | 10 to 100 |
| CCCCc1nc2ccccc2n1-c1cncc(Nc2ccc(C(F)(F)F)cc2)n1 [compound 80, 6-(2-butyl-1H-benzimidazol-1-yl)-N-[4-(trifluoromethyl)phenyl]pyrazin-2-amine] | 100 to 3000 |
| CCOc1nc2ccccc2n1-c1cncc(Nc2ccc(C(F)(F)F)cc2)n1 [compound 81, 6-(2-ethoxy-1H-benzimidazol-1-yl)-N-[4-(trifluoromethyl)phenyl]pyrazin-2-amine] | 100 to 3000 |
| Cc1nc2ncccc2n1-c1cncc(Nc2ccc(C(F)(F)F)cc2)n1 [compound 82, 6-(2-methyl-1H-imidazo[4,5-b]pyridin-1-yl)-N-[4-(trifluoromethyl)phenyl]pyrazin-2-amine] | 10 to 100 |
| CCc1nc2ncccc2n1-c1cncc(Nc2ccc(C(F)(F)F)cc2)n1 [compound 83, 6-(2-ethyl-1H-imidazo[4,5-b]pyridin-1-yl)-N-[4-(trifluoromethyl)phenyl]pyrazin-2-amine] | 10 to 100 |
| Cc1nc2ncccc2n1-c1cncc(Nc2ccc(OC(F)F)cc2)n1 [compound 85, N-[4-(difluoromethoxy)phenyl]-6-(2-methyl-1H-imidazo[4,5-b]pyridin-1-yl)pyrazin-2-amine] | 10 to 100 |
| COc1ccc(Nc2cncc(-c3cccc4nc(C5CC5)cn34)n2)cc1 [compound 86, 6-(2-cyclopropylimidazo[1,2-a]pyridin-5-yl)-N-(4-methoxyphenyl)pyrazin-2-amine] | 10 to 100 |
| FC1(F)Oc2ccc(Nc3cncc(-c4cccc5nc(C6CC6)cn45)n3)cc2O1 [compound 88, 6-(2-cyclopropylimidazo[1,2-a]pyridin-5-yl)-N-(2,2-difluoro-1,3-benzodioxol-5-yl)pyrazin-2-amine] | 100 to 3000 |
| FC1(F)Oc2ccc(Nc3cncc(-c4c(C(F)(F)F)nn5ccccc45)n3)cc2O1 [compound 92, N-(2,2-difluoro-1,3-benzodioxol-5-yl)-6-[2-(trifluoromethyl)pyrazolo[1,5-a]pyridin-3-yl]pyrazin-2-amine] | 100 to 3000 |
| FC(F)(F)c1ccc(Nc2cncc(-c3c(C(F)(F)F)nc4cnccn34)n2)cc1 [compound 93, 6-[2-(trifluoromethyl)imidazo[1,2-a]pyrazin-3-yl]-N-[4-(trifluoromethyl)phenyl]pyrazin-2-amine] | 10 to 100 |
| CCc1nc2ncncc2n1-c1cncc(Nc2ccc(C(F)(F)F)cc2)n1 [compound 94, 6-(8-ethyl-7H-purin-7-yl)-N-[4-(trifluoromethyl)phenyl]pyrazin-2-amine] | 100 to 3000 |
| Cc1nc2ncccc2n1-c1cncc(Nc2ccc(OC(F)(F)F)cc2)n1 [compound 95, 6-(2-methyl-1H-imidazo[4,5-b]pyridin-1-yl)-N-[4-(trifluoromethoxy)phenyl]pyrazin-2-amine] | 10 to 100 |
| Cc1cc(Nc2cncc(-c3c(C(F)(F)F)nc4ccccn34)n2)on1 [compound 97, N-(3-methyl-1,2-oxazol-5-yl)-6-[2-(trifluoromethyl)imidazo[1,2-a]pyridin-3-yl]pyrazin-2-amine] | 100 to 3000 |
| C[C@H](O)c1nc2ccccc2n1-c1cncc(Nc2ccc(C(F)(F)F)cc2)n1 [compound 98, (1S)-1-[1-(6-{[4-(trifluoromethyl)phenyl]amino}pyrazin-2-yl)-1H-benzimidazol-2-yl]ethanol] | 10 to 100 |
| FC(F)(F)Oc1ccc(Nc2cccc(-c3c(C(F)(F)F)nc4ncccn34)n2)cc1 [compound 99, N-[4-(trifluoromethoxy)phenyl]-6-[2-(trifluoromethyl)imidazo[1,2-a]pyrimidin-3-yl]pyridin-2-amine] | 100 to 3000 |

| SMILES | EC50 [nM] |
| --- | --- |
| COc1ccc2nc(C(F)(F)F)c(-c3cccc(Nc4ccc(OC(F)(F)F)cc4)n3)n2c1 [compound 101, 6-[6-methoxy-2-(trifluoromethyl)imidazo[1,2-a]pyridin-3-yl]-N-[4-(trifluoromethoxy)phenyl]pyridin-2-amine] | 10 to 100 |
| COc1ccc2nc(C(F)(F)F)c(-c3cccc(Nc4ccc(C(F)(F)F)cc4)n3)n2c1 [compound 102, 6-[6-methoxy-2-(trifluoromethyl)imidazo[1,2-a]pyridin-3-yl]-N-[4-(trifluoromethyl)phenyl]pyridin-2-amine] | 10 to 100 |
| COc1ccc2nc(C(F)(F)F)c(-c3cccc(Nc4ccc(OC(F)F)cc4)n3)n2c1 [compound 103, N-[4-(difluoromethoxy)phenyl]-6-[6-methoxy-2-(trifluoromethyl)imidazo[1,2-a]pyridin-3-yl]pyridin-2-amine] | 10 to 100 |
| Cc1nn(C)c(C)c1-c1cncc(Nc2ccc(OC(F)(F)F)cc2)n1 [compound 105, N-[4-(trifluoromethoxy)phenyl]-6-(1,3,5-trimethyl-1H-pyrazol-4-yl)pyrazin-2-amine] | 10 to 100 |
| Cc1nn(C)c(C)c1-c1cncc(Nc2ccc(Br)cc2)n1 [compound 106, N-(4-bromophenyl)-6-(1,3,5-trimethyl-1H-pyrazol-4-yl)pyrazin-2-amine] | < 1 |
| FC(F)Oc1ccc(Nc2cccc(-c3c(C(F)(F)F)nc4ncccn34)n2)cc1 [compound 108, N-[4-(difluoromethoxy)phenyl]-6-[2-(trifluoromethyl)imidazo[1,2-a]pyrimidin-3-yl]pyridin-2-amine] | 10 to 100 |
| Oc1ccc2nc(C(F)(F)F)c(-c3cccc(Nc4ccc(OC(F)(F)F)cc4)n3)n2c1 [compound 110, 3-(6-{[4-(trifluoromethoxy)phenyl]amino}pyridin-2-yl)-2-(trifluoromethyl)imidazo[1,2-a]pyridin-6-ol] | 100 to 3000 |
| Oc1ccc2nc(C(F)(F)F)c(-c3cccc(Nc4ccc(C(F)(F)F)cc4)n3)n2c1 [compound 111, 2-(trifluoromethyl)-3-(6-{[4-(trifluoromethyl)phenyl]amino}pyridin-2-yl)imidazo[1,2-a]pyridin-6-ol] | 10 to 100 |
| COc1ccc2nc(C(F)(F)F)c(-c3cccc(Nc4ccc(OC=O)cc4)n3)n2c1 [compound 112, 4-({6-[6-methoxy-2-(trifluoromethyl)imidazo[1,2-a]pyridin-3-yl]pyridin-2-yl}amino)phenyl formate] | 100 to 3000 |
| COc1ccc2nc(C(F)(F)F)c(-c3cccc(Nc4ccc(O)cc4)n3)n2c1 [compound 113, 4-({6-[6-methoxy-2-(trifluoromethyl)imidazo[1,2-a]pyridin-3-yl]pyridin-2-yl}amino)phenol] | 100 to 3000 |
| FC(F)(F)c1ccc(Nc2cncc(-c3c(C(F)(F)F)nc4sccn34)n2)cc1 [compound 118, 6-[6-(trifluoromethyl)imidazo[2,1-b][1,3]thiazol-5-yl]-N-[4-(trifluoromethyl)phenyl]pyrazin-2-amine] | 1 to 10 |
| COc1ccc(Nc2cncc(-c3c(C(F)(F)F)nc4sccn34)n2)cc1 [compound 119, N-(4-methoxyphenyl)-6-[6-(trifluoromethyl)imidazo[2,1-b][1,3]thiazol-5-yl]pyrazin-2-amine] | < 1 |
| FC(F)(F)Oc1ccc(Nc2cncc(-c3c(C(F)(F)F)nc4sccn34)n2)cc1 [compound 120, N-[4-(trifluoromethoxy)phenyl]-6-[6-(trifluoromethyl)imidazo[2,1-b][1,3]thiazol-5-yl]pyrazin-2-amine] | 10 to 100 |
| FC(F)Oc1ccc(Nc2cncc(-c3c(C(F)(F)F)nc4sccn34)n2)cc1 [compound 121, N-[4-(difluoromethoxy)phenyl]-6-[6-(trifluoromethyl)imidazo[2,1-b][1,3]thiazol-5-yl]pyrazin-2-amine] | 1 to 10 |
| FC(F)(F)c1nc2sccn2c1-c1cncc(Nc2ccccc2)n1 [compound 122, N-phenyl-6-[6-(trifluoromethyl)imidazo[2,1-b][1,3]thiazol-5-yl]pyrazin-2-amine] | 100 to 3000 |
| FC(F)(F)c1ccc(Nc2cncc(-n3c(C(F)(F)F)nc4ncccc43)n2)cc1 [compound 123, 6-[2-(trifluoromethyl)-1H-imidazo[4,5-b]pyridin-1-yl]-N-[4-(trifluoromethyl)phenyl]pyrazin-2-amine] | 100 to 3000 |
| CCc1nc(C)c(-c2cncc(Nc3ccc(C(F)(F)F)cc3)n2)n1Cc1ccccc1 [compound 126] | 100 to 3000 |
| COC(=O)c1ccc(Nc2cncc(-n3c(C)nc4ccccc43)n2)cc1 [compound 133, methyl 4-{[6-(2-methyl-1H-benzimidazol-1-yl)pyrazin-2-yl]amino}benzoate] | 10 to 100 |
| FC(F)(F)c1ccc(Nc2cncc(-n3c(Cl)nc4ccccc43)n2)cc1 [compound 134, 6-(2-chloro-1H-benzimidazol-1-yl)-N-[4-(trifluoromethyl)phenyl]pyrazin-2-amine] | 100 to 3000 |

Same assay, conditions: read-out: ELISA EC50 value for Bmi-1 protein, Table 1, Bmi-1 sandwich ELISA

| SMILES | EC50 [nM] |
| --- | --- |
| FC(F)Oc1ccc(Nc2cncc(-c3cccc4nc(C5CC5)cn34)n2)cc1 [compound 90, 6-(2-cyclopropylimidazo[1,2-a]pyridin-5-yl)-N-[4-(difluoromethoxy)phenyl]pyrazin-2-amine] | 10 to 100 |
